Measured values as given in ChEMBL document CHEMBL1123745, “Preparation and biological evaluation of a potential photoaffinity label for the prostaglandin H2/thromboxane A2 receptor” (J Med Chem, 1987).

Tests used:
[1] = target: T1, Thromboxane A2 receptor (Homo sapiens) (UniProt P21731); assay: Ability to inhibit the U-46,619 (TXA2 agonist,3uM) induced aggregation in human platelets; range (5-20 uM); type: functional
T1 sequence (whole entry): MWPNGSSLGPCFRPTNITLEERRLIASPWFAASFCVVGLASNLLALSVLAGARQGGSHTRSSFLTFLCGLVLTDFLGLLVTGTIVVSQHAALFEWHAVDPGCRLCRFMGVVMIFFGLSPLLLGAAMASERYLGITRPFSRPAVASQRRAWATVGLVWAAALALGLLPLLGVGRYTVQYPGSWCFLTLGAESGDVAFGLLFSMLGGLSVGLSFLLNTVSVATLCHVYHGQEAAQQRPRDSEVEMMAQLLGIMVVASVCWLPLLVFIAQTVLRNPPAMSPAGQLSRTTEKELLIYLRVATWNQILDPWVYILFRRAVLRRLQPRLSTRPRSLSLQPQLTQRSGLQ

[2] = target: T1, Thromboxane A2 receptor (Homo sapiens); assay: Ability to inhibit the U-46,619 (TXA2 agonist, 3 uM); type: functional
[3] = Ability to inhibit ADP (10 uM) induced aggregation in human platelet rich plasma (PRP) relative to 13-azaprostanoic acid; type: functional
[4] = Ability to inhibit U-46,619 (0.5 uM) induced aggregation in human platelet rich plasma (PRP) relative to 13-azaprostanoic acid; type: functional
[5] = species on record: Homo sapiens; assay: Inhibition of [3H]U-46619 binding in dark incubated platelets; type: functional
[6] = target: T1, Thromboxane A2 receptor (Homo sapiens); assay: Inhibition of UV-irridiated platelets relative to dark incubated platelets after irreversible inhibition of U-46,619 binding after photoactivation (p<0.02); conditions: concentration not given here
[7] = target: T1, Thromboxane A2 receptor (Homo sapiens); assay: Ability to inhibit the U-46,619 (TXA2 agonist,3 uM) induced aggregation in human platelets was determined; type: functional

SMILES	ED50 [1] [µM]	other results
[N-]=[N+]=Nc1ccc(CCCNC2CCCC2CCCCCCC(=O)O)cc1 (cis isomer)	20	–
[N-]=[N+]=Nc1ccc(CCCNC2CCCC2CCCCCCC(=O)O)cc1 (trans isomer) [listing 1 of 2 here]	20	–
O=C(O)CCCCCCC1CCCC1NCCCOc1ccccc1 (trans isomer)	–	ED50 [2]: 20 µM
[N-]=[N+]=Nc1ccc(CCCNC2CCCC2CCCCCCC(=O)O)cc1 (trans isomer) [listing 2 of 2 here]	–	Inhibition [3]: 19%; Inhibition [4]: 63%
Nc1ccc(CCCNC2CCCC2CCCCCCC(=O)O)cc1 (trans isomer)	20	–
[N-]=[N+]=Nc1ccc(CCCNC2CCCC2CCCCCCC(=O)O)cc1[127I] (trans isomer)	–	Inhibition [3]: 15%; Inhibition [4]: 81%; Ki [5]: 0.29 µM
[N-]=[N+]=Nc1ccc(CCCNC2CCCC2CCCCCCC(=O)O)cc1I (trans isomer)	–	inhibition [6]: 38%; ED50 [7]: 2 µM

Continued, in another order:

ED50 [1] [µM]	SMILES	other results
20	Nc1ccc(OCCCNC2CCCC2CCCCCCC(=O)O)cc1 (trans isomer)	–
20	O=C(O)CCCCCCC1CCCC1NCCCc1ccc([N+](=O)[O-])cc1 (cis isomer)	–
20	O=C(O)CCCCCCC1CCCC1NCCCOc1ccccc1 (stereo not given)	–
20	O=C(O)CCCCCCC1CCCC1NCCCOc1ccc([N+](=O)[O-])cc1 (trans isomer)	–
20	[N-]=[N+]=Nc1ccc(OCCCNC2CCCC2CCCCCCC(=O)O)cc1 (trans isomer)	Inhibition [3]: 50%; Inhibition [4]: 38%
20	O=C(O)CCCCCCC1CCCC1NCCCc1ccc([N+](=O)[O-])cc1 (trans isomer)	–
20	O=C(O)CCCCCCC1CCCC1NCCCOc1ccc([N+](=O)[O-])cc1 (stereo in doubt)	–
